Data from patent US10829481B2, “Benzimidazole derivatives as modulators of ROR-gamma” (Vitae Pharmaceuticals, LLC, priority 2016, dated 2020).

How the values were obtained:
[1] = target: recombinant RORγ Ligand Binding Domain (LBD) protein (Homo sapiens (Human), UniProt P51449); experiment: Radio-Ligand RORγ Binding Assay (Assay 1); details: competition with 25-hydroxy [26,27-3H]-cholesterol, SPA
Procedure: Radio-Ligand RORγ Binding Assay (Assay 1)
Compounds described herein were tested for ability to bind to RORγ in a cell-free competition assay with commercially available radio-ligand (RL), 25-hydroxy [26,27-^3H]-cholesterol (PerkinElmer, Cat. #NET674250UC), for a ligand binding site on a recombinant RORγ Ligand Binding Domain (LBD) protein expressed as a 6×His-Glutathione-S-Transferase (GST) fusion. The assay was performed in 96-well SPA plates (PerkinElmer, Cat. #1450-401) in 50 mM HEPES buffer, pH 7.4, containing 150 mM NaCl, 5 mM MgCl2, 10% (v/v) glycerol, 2 mM CHAPS, 0.5 mM β-octylglucopyranoside and 5 mM DTT. Tested compounds were dissolved in DMSO, and semi-log (3.162×) serial dilutions of the compounds were prepared in the same solvent. Two μL of the DMSO solutions were mixed with 28 μL of 8.6 nM 25-hydroxy [26,27-^3H]-cholesterol and 50 μL of 24 nM RORγ LBD. The plate was shaken at 700 rpm for 20 min and incubated for 10 min at rt, after which 40 μL of poly-Lys YSi SPA beads (PerkinElmer, Cat. #RPNQ0010) were added to achieve […] of the beads per well. The plate was incubated on an orbital shaker for 20 min and then for 10 min without agitation at rt. SPA signal for tritium beta radiation was registered on PerkinElmer Microbeta plate reader. […] The percent inhibition vs. concentration data were fit into a four-parameter model, and IC50 values were calculated from the fit as the concentrations corresponding to the inflection points on the dose-response curves. Inhibitory constants (Ki) were calculated using the following equation, where [RL] is the concentration in the assay and KD is a dissociation constant of 25-hydroxy [26,27-^3H]-cholesterol: […]

[2] = target: full-length RORγt in Jurkat cells (Homo sapiens (Human), UniProt P51449); experiment: RORγt 5×RORE Assay in Jurkat Cells (Assay 2); type: cell-based; details: 5×RORE Nanoluc luciferase reporter
Chain of full-length RORγt in Jurkat cells (P51449 other isoform, or with tags, fused parts or gaps): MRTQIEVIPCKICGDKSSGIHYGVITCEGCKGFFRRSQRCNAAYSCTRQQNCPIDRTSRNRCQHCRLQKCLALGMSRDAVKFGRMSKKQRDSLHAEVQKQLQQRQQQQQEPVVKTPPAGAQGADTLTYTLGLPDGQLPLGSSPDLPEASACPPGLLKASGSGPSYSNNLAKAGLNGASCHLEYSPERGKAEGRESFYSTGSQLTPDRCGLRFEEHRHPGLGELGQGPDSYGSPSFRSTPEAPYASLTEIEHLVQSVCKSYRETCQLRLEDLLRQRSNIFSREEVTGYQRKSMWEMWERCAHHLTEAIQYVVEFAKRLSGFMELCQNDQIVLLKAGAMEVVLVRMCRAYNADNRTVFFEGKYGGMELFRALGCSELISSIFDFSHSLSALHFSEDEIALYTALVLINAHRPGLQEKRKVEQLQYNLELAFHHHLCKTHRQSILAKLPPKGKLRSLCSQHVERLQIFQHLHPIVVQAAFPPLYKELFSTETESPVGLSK
Procedure: RORγt 5×RORE Assay in Jurkat Cells (Assay 2)
Compounds described herein were tested for RORγ inverse agonist activity in a cell-based, transcriptional activity assay. Secreted Nanoluc® luciferase was used as a reporter for transcriptional activity of the full-length RORγt in Jurkat cells (ATCC, Cat. #TIB-152). […] (Promega, Cat. #N1021) using KpnI and HindIII restriction sites. […] After 5-6 hrs of incubation at 37° C./5% CO2, the cells were collected, resuspended in phenol-red free RPMI media containing 10% (v/v) delipidated FBS (Hyclone, Cat. #SH30855.03) and dispensed into 96-well clear bottom tissue culture plates (CoStar, Cat. #3603), at 80,000 cells per well. Tested compounds were added to the cells in the same media (final concentration of DMSO was 0.1% (v/v)), and the plates were incubated at 37° C./5% CO2 for 16-18 hrs. Luciferase activity in the conditioned supernatants was determined with NanoGlo® assay reagents (Promega, Cat. #N1130).

Chain of recombinant RORγ Ligand Binding Domain (LBD) protein (P51449 269-508): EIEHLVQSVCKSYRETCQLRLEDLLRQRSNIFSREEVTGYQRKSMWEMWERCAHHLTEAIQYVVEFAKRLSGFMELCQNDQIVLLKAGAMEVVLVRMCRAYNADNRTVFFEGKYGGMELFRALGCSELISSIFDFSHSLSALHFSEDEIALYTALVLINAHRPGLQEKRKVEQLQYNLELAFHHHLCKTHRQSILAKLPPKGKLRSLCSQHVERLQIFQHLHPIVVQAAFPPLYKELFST

Ki [1] [nM] | IC50 [2] [nM] | SMILES
< 100 | < 100 | CCS(=O)(=O)c1ccc(CC(=O)Nc2ccc3c(c2)nc(C(F)(F)F)n3Cc2cccc3c2OC(F)(F)O3)cc1 [I-1, N-(1-((2,2-difluorobenzo[d][1,3]dioxol-4-yl)methyl)-2-(trifluoromethyl)-1H-benzo[d]imidazol-5-yl)-2-(4-(ethylsulfonyl)phenyl)acetamide]
< 100 | < 100 | CS(=O)(=O)c1ccc(CC(=O)Nc2ccc3c(c2)nc(C(F)(F)F)n3Cc2cccc3c2OC(F)(F)O3)cc1 [I-2, N-(1-((2,2-difluorobenzo[d][1,3]dioxol-4-yl)methyl)-2-(trifluoromethyl)-1H-benzo[d]imidazol-5-yl)-2-(4-(methylsulfonyl)phenyl)acetamide]
< 100 | < 100 | O=C(Cc1ccc(S(=O)(=O)CCO)cc1)Nc1ccc2c(c1)nc(C(F)(F)F)n2Cc1cccc2c1OC(F)(F)O2 [I-3, N-(1-((2,2-difluorobenzo[d][1,3]dioxol-4-yl)methyl)-2-(trifluoromethyl)-1H-benzo[d]imidazol-5-yl)-2-(4-((2-hydroxyethyl)sulfonyl)phenyl)acetamide]
< 100 | < 100 | COCCS(=O)(=O)c1ccc(CC(=O)Nc2ccc3c(c2)nc(C(F)(F)F)n3Cc2cccc3c2OC(F)(F)O3)cc1 [I-4, N-(1-((2,2-difluorobenzo[d][1,3]dioxol-4-yl)methyl)-2-(trifluoromethyl)-1H-benzo[d]imidazol-5-yl)-2-(4-((2-methoxyethyl)sulfonyl)phenyl)acetamide]
< 100 | < 100 | CNS(=O)(=O)c1ccc(CC(=O)Nc2ccc3c(c2)nc(C(F)(F)F)n3Cc2cccc3c2OC(F)(F)O3)cc1 [I-5, N-(1-((2,2-difluorobenzo[d][1,3]dioxol-4-yl)methyl)-2-(trifluoromethyl)-1H-benzo[d]imidazol-5-yl)-2-(4-(N-methylsulfamoyl)phenyl)acetamide]
< 100 | > 1000 | N#Cc1ccc(CC(=O)Nc2ccc3c(c2)nc(C(F)(F)F)n3Cc2cccc3c2OC(F)(F)O3)cc1 [I-6, 2-(4-cyanophenyl)-N-(1-((2,2-difluorobenzo[d][1,3]dioxol-4-yl)methyl)-2-(trifluoromethyl)-1H-benzo[d]imidazol-5-yl)acetamide]
< 100 | < 100 | CCS(=O)(=O)c1ccc(CC(=O)Nc2ccc3c(c2)nc(C2CC2)n3Cc2cccc3c2OC(F)(F)O3)cc1 [I-9, N-(2-cyclopropyl-1-((2,2-difluorobenzo[d][1,3]dioxol-4-yl)methyl)-1H-benzo[d]imidazol-5-yl)-2-(4-(ethylsulfonyl)phenyl)acetamide]
< 100 | > 1000 | CS(=O)(=O)N1CCC(CC(=O)Nc2ccc3c(c2)nc(C(F)(F)F)n3Cc2cccc3c2OC(F)(F)O3)CC1 [I-10, N-(1-((2,2-difluorobenzo[d][1,3]dioxol-4-yl)methyl)-2-(trifluoromethyl)-1H-benzo[d]imidazol-5-yl)-2-(1-(methylsulfonyl)piperidin-4-yl)acetamide]
< 100 | < 100 | CS(=O)(=O)c1ccc([C@H](CO)NC(=O)c2ccc3c(c2)nc(C2CC2)n3Cc2cccc3c2OC(F)(F)O3)cc1 [I-21, (R)-2-cyclopropyl-1-((2,2-difluorobenzo[d][1,3]dioxol-4-yl)methyl)-N-(2-hydroxy-1-(4-(methylsulfonyl)phenyl)ethyl)-1H-benzo[d]imidazole-5-carboxamide]
< 100 | < 100 | CS(=O)(=O)c1ccc([C@H](CO)NC(=O)c2ccc3c(c2)nc(C2CCC2)n3Cc2cccc3c2OC(F)(F)O3)cc1 [I-22, (R)-2-cyclobutyl-1-((2,2-difluorobenzo[d][1,3]dioxol-4-yl)methyl)-N-(2-hydroxy-1-(4-(methylsulfonyl)phenyl)ethyl)-1H-benzo[d]imidazole-5-carboxamide]
< 100 | < 100 | CS(=O)(=O)c1ccc([C@H](CO)NC(=O)c2ccc3c(c2)nc(C2(F)CC2)n3Cc2cccc3c2OC(F)(F)O3)cc1 [I-24, (R)-1-((2,2-difluorobenzo[d][1,3]dioxol-4-yl)methyl)-2-(1-fluorocyclopropyl)-N-(2-hydroxy-1-(4-(methylsulfonyl)phenyl)ethyl)-1H-benzo[d]imidazole-5-carboxamide]

More lines, now with the values behind:

SMILES | Ki [1] [nM] | IC50 [2] [nM]
CCS(=O)(=O)c1ccc([C@H](CO)NC(=O)c2ccc3c(c2)nc(C(F)(F)F)n3Cc2cccc3c2OC(F)(F)O3)cc1 [I-11.1, (R)-1-((2,2-difluorobenzo[d][1,3]dioxol-4-yl)methyl)-N-(1-(4-(ethylsulfonyl)phenyl)-2-hydroxyethyl)-2-(trifluoromethyl)-1H-benzo[d]imidazole-5-carboxamide] | < 100 | < 100
CCS(=O)(=O)c1ccc([C@@H](CO)NC(=O)c2ccc3c(c2)nc(C(F)(F)F)n3Cc2cccc3c2OC(F)(F)O3)cc1 [I-11.2, (S)-1-((2,2-difluorobenzo[d][1,3]dioxol-4-yl)methyl)-N-(1-(4-(ethylsulfonyl)phenyl)-2-hydroxyethyl)-2-(trifluoromethyl)-1H-benzo[d]imidazole-5-carboxamide] | < 100 | < 100
CCc1nc2cc(C(=O)N[C@@H](CO)c3ccc(S(=O)(=O)CC)cc3)ccc2n1Cc1cccc2c1OC(F)(F)O2 [I-16, (R)-1-((2,2-difluorobenzo[d][1,3]dioxol-4-yl)methyl)-2-ethyl-N-(1-(4-(ethylsulfonyl)phenyl)-2-hydroxyethyl)-1H-benzo[d]imidazole-5-carboxamide] | < 100 | < 100
CCS(=O)(=O)c1ccc([C@H](CO)NC(=O)c2ccc3c(c2)nc(C(F)F)n3Cc2cccc3c2OC(F)(F)O3)cc1 [I-17, (R)-1-((2,2-difluorobenzo[d][1,3]dioxol-4-yl)methyl)-2-(difluoromethyl)-N-(1-(4-(ethylsulfonyl)phenyl)-2-hydroxyethyl)-1H-benzo[d]imidazole-5-carboxamide] | < 100 | < 100
CCS(=O)(=O)c1ccc([C@H](CO)NC(=O)c2ccc3c(c2)nc(C2(F)CC2)n3Cc2cccc3c2OC(F)(F)O3)cc1 [I-18, (R)-1-((2,2-difluorobenzo[d][1,3]dioxol-4-yl)methyl)-N-(1-(4-(ethylsulfonyl)phenyl)-2-hydroxyethyl)-2-(1-fluorocyclopropyl)-1H-benzo[d]imidazole-5-carboxamide] | < 100 | < 100
CS(=O)(=O)c1ccc([C@H](CO)NC(=O)c2ccc3c(c2)nc(C(F)(F)F)n3Cc2cccc3c2OC(F)(F)O3)cc1 [I-20.1, (R)-1-((2,2-difluorobenzo[d][1,3]dioxol-4-yl)methyl)-N-(2-hydroxy-1-(4-(methylsulfonyl)phenyl)ethyl)-2-(trifluoromethyl)-1H-benzo[d]imidazole-5-carboxamide] | < 100 | < 100
CS(=O)(=O)c1ccc([C@@H](CO)NC(=O)c2ccc3c(c2)nc(C(F)(F)F)n3Cc2cccc3c2OC(F)(F)O3)cc1 [I-20.2, (S)-1-((2,2-difluorobenzo[d][1,3]dioxol-4-yl)methyl)-N-(2-hydroxy-1-(4-(methylsulfonyl)phenyl)ethyl)-2-(trifluoromethyl)-1H-benzo[d]imidazole-5-carboxamide] | < 100 | < 100
CS(=O)(=O)c1ccc([C@H](CO)NC(=O)c2ccc3c(c2)nc(C(F)F)n3Cc2cccc3c2OC(F)(F)O3)cc1 [I-23.1, (R)-1-((2,2-difluorobenzo[d][1,3]dioxol-4-yl)methyl)-2-(difluoromethyl)-N-(2-hydroxy-1-(4-(methylsulfonyl)phenyl)ethyl)-1H-benzo[d]imidazole-5-carboxamide] | < 100 | < 100
CS(=O)(=O)c1ccc([C@@H](CO)NC(=O)c2ccc3c(c2)nc(C(F)F)n3Cc2cccc3c2OC(F)(F)O3)cc1 [I-23.2, (S)-1-((2,2-difluorobenzo[d][1,3]dioxol-4-yl)methyl)-2-(difluoromethyl)-N-(2-hydroxy-1-(4-(methylsulfonyl)phenyl)ethyl)-1H-benzo[d]imidazole-5-carboxamide] | < 100 | 100 to 1000
